Results from PubChem BioAssay AID2060604 (Molecular Pharmacology Branch, DTP, NCI, 2025).

Tested on: 379773-124-R-J2-PDC complex spheroids, viability % test/control
Assay: Anticancer human tumor 379773-124-R-J2-PDC patient-derived endometrial carcinoma cell line growth inhibition [CLK]
Conditions: for IC50: curve of first compound; for viability, T/C: stronger effect = lower value
Summary of the method: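 Patient-derived tumor cells grown as complex spheroids with HUVEC endothelial cells and mesenchymal stem cells, treated with drug combinations. Concentrations descend in half-log steps from near clinical Cmax, or from 10 microM if Cmax unknown.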

[1] = second compound 0.0316 µM, first compound 0.0316 µM
[2] = second compound 0.0316 µM, first compound 0.1 µM
[3] = second compound 0.0316 µM, first compound 0.316 µM
[4] = second compound 0.0316 µM, first compound 1 µM
[5] = second compound 0.0316 µM, first compound 3.16 µM
[6] = second compound 0.0316 µM, first compound 10 µM
[7] = second compound 0.1 µM, first compound 0.0316 µM
[8] = second compound 0.1 µM, first compound 0.1 µM
[9] = second compound 0.1 µM, first compound 0.316 µM
[10] = second compound 0.1 µM, first compound 1 µM
[11] = second compound 0.1 µM, first compound 3.16 µM
[12] = second compound 0.1 µM, first compound 10 µM
[13] = second compound 0.316 µM, first compound 0.0316 µM
[14] = second compound 0.316 µM, first compound 0.1 µM
[15] = second compound 0.316 µM, first compound 0.316 µM
[16] = second compound 0.316 µM, first compound 1 µM
[17] = second compound 0.316 µM, first compound 3.16 µM
[18] = second compound 0.316 µM, first compound 10 µM
[19] = second compound 1 µM, first compound 0.0316 µM
[20] = second compound 1 µM, first compound 0.1 µM
[21] = second compound 1 µM, first compound 0.316 µM
[22] = second compound 1 µM, first compound 1 µM
[23] = second compound 1 µM, first compound 3.16 µM
[24] = second compound 1 µM, first compound 10 µM
[25] = second compound 3.16 µM, first compound 0.0316 µM
[26] = second compound 3.16 µM, first compound 0.1 µM
[27] = second compound 3.16 µM, first compound 0.316 µM
[28] = second compound 3.16 µM, first compound 1 µM
[29] = second compound 3.16 µM, first compound 3.16 µM
[30] = second compound 3.16 µM, first compound 10 µM
[31] = second compound 10 µM, first compound 0.0316 µM
[32] = second compound 10 µM, first compound 0.1 µM
[33] = second compound 10 µM, first compound 0.316 µM
[34] = second compound 10 µM, first compound 1 µM
[35] = second compound 10 µM, first compound 3.16 µM
[36] = second compound 10 µM, first compound 10 µM
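Note: compound exposure lasted seven days before the viability readout.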
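Throughout, for viability, T/C: 100% = DMSO vehicle control wells.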

How did the IC50 (second compound 0.0316 µM) turn out when COc1ccc([C@@H](O)c2cc(-c3ncnc4cc(N5CCOCC5)ccc34)c(F)cc2Cl)nn1 + CNC(=O)c1ccc(Nc2nc(OC3CCCC3)c3c(-c4ccc5nc(C)oc5c4)c[nH]c3n2)c(OC)c1 was run?
The IC50 was 3420 nM.

And the IC50 (second compound 0.1 µM)?
The IC50 was under 31.6 nM.

What about the IC50 (second compound 0.316 µM) of the same compound?
Its IC50 is under 31.6 nM.

What about the IC50 (second compound 1 µM) of the same compound?
Its IC50 is under 31.6 nM.

What about the IC50 (second compound 3.16 µM) of the same compound?
The IC50 was under 31.6 nM.

What about the IC50 (second compound 10 µM) of the same compound?
The IC50 was under 31.6 nM.

What about the viability, T/C [1] of the same compound?
Its viability, T/C is 79.2%.

What about the viability, T/C [2] of the same compound?
Its viability, T/C is 79.9%.

What about the viability, T/C [3] of the same compound?
Its viability, T/C is 68%.

What about the viability, T/C [4] of the same compound?
Its viability, T/C is 60.6%.

What about the viability, T/C [5] of the same compound?
The viability, T/C was 58.7%.

And the viability, T/C [6]?
The viability, T/C was 20.4%.

And the viability, T/C [7]?
The viability, T/C was 35.6%.

What about the viability, T/C [8] of the same compound?
The viability, T/C was 30.8%.

And the viability, T/C [9]?
Its viability, T/C is 32.7%.

And the viability, T/C [10]?
The viability, T/C was 29.7%.

And the viability, T/C [11]?
Its viability, T/C is 24%.

What about the viability, T/C [12] of the same compound?
The viability, T/C was 12.7%.

What about the viability, T/C [13] of the same compound?
Its viability, T/C is 45.2%.

What about the viability, T/C [14] of the same compound?
Its viability, T/C is 38%.

And the viability, T/C [15]?
The viability, T/C was 29%.

And the viability, T/C [16]?
The viability, T/C was 21.6%.

What about the viability, T/C [17] of the same compound?
Its viability, T/C is 15.1%.

And the viability, T/C [18]?
Its viability, T/C is 7.43%.

And the viability, T/C [19]?
Its viability, T/C is 34.8%.

And the viability, T/C [20]?
Its viability, T/C is 35%.

And the viability, T/C [21]?
The viability, T/C was 32.1%.

And the viability, T/C [22]?
The viability, T/C was 25.9%.

What about the viability, T/C [23] of the same compound?
The viability, T/C was 14.9%.

And the viability, T/C [24]?
Its viability, T/C is 6.1%.

What about the viability, T/C [25] of the same compound?
The viability, T/C was 34.7%.

And the viability, T/C [26]?
The viability, T/C was 32.3%.

What about the viability, T/C [27] of the same compound?
The viability, T/C was 27.8%.

And the viability, T/C [28]?
Its viability, T/C is 19.3%.

And the viability, T/C [29]?
The viability, T/C was 15.7%.

And the viability, T/C [30]?
Its viability, T/C is 4.62%.

And the viability, T/C [31]?
Its viability, T/C is 32.8%.

What about the viability, T/C [32] of the same compound?
Its viability, T/C is 33.7%.

What about the viability, T/C [33] of the same compound?
Its viability, T/C is 23.4%.

What about the viability, T/C [34] of the same compound?
The viability, T/C was 17.9%.

What about the viability, T/C [35] of the same compound?
The viability, T/C was 14.2%.

What about the viability, T/C [36] of the same compound?
Its viability, T/C is 4.23%.

How did the IC50 (second compound 0.0316 µM) turn out when COc1cccc2c1C(=O)c1c(O)c3c(c(O)c1C2=O)CC(O)(C(=O)CO)CC3OC1CC(N)C(O)C(C)O1 (centres undefined) + CNC(=O)c1ccc(Nc2nc(OC3CCCC3)c3c(-c4ccc5nc(C)oc5c4)c[nH]c3n2)c(OC)c1 was run?
Its IC50 is under 31.6 nM.

And the IC50 (second compound 0.1 µM)?
The IC50 was under 31.6 nM.

What about the IC50 (second compound 0.316 µM) of the same compound?
The IC50 was under 31.6 nM.

And the IC50 (second compound 1 µM)?
The IC50 was under 31.6 nM.

And the IC50 (second compound 3.16 µM)?
Its IC50 is under 31.6 nM.

What about the IC50 (second compound 10 µM) of the same compound?
Its IC50 is under 31.6 nM.

What about the viability, T/C [1] of the same compound?
Its viability, T/C is 31.1%.

And the viability, T/C [2]?
Its viability, T/C is 6.01%.

What about the viability, T/C [3] of the same compound?
Its viability, T/C is 5.35%.

And the viability, T/C [4]?
Its viability, T/C is 3.7%.

And the viability, T/C [5]?
The viability, T/C was 0.43%.

And the viability, T/C [6]?
Its viability, T/C is 0.22%.

What about the viability, T/C [7] of the same compound?
The viability, T/C was 22.6%.

And the viability, T/C [8]?
The viability, T/C was 6.93%.

And the viability, T/C [9]?
The viability, T/C was 5.94%.

And the viability, T/C [10]?
The viability, T/C was 3.46%.

And the viability, T/C [11]?
Its viability, T/C is 0.36%.

What about the viability, T/C [12] of the same compound?
The viability, T/C was 0.17%.

What about the viability, T/C [13] of the same compound?
The viability, T/C was 25.9%.

And the viability, T/C [14]?
The viability, T/C was 4.93%.

And the viability, T/C [15]?
Its viability, T/C is 3.63%.

And the viability, T/C [16]?
Its viability, T/C is 2.73%.

And the viability, T/C [17]?
The viability, T/C was 0.13%.

And the viability, T/C [18]?
The viability, T/C was 0.11%.

What about the viability, T/C [19] of the same compound?
Its viability, T/C is 17.8%.

What about the viability, T/C [20] of the same compound?
Its viability, T/C is 4.68%.

And the viability, T/C [21]?
The viability, T/C was 3.73%.

What about the viability, T/C [22] of the same compound?
The viability, T/C was 1.18%.

What about the viability, T/C [23] of the same compound?
Its viability, T/C is 0.15%.

And the viability, T/C [24]?
Its viability, T/C is 0.06%.

What about the viability, T/C [25] of the same compound?
The viability, T/C was 12%.

And the viability, T/C [26]?
Its viability, T/C is 5.12%.

And the viability, T/C [27]?
The viability, T/C was 3.67%.

And the viability, T/C [28]?
Its viability, T/C is 1.27%.

And the viability, T/C [29]?
The viability, T/C was 0.08%.

What about the viability, T/C [30] of the same compound?
Its viability, T/C is 0.12%.

What about the viability, T/C [31] of the same compound?
Its viability, T/C is 9.36%.

And the viability, T/C [32]?
Its viability, T/C is 5.57%.

What about the viability, T/C [33] of the same compound?
The viability, T/C was 3.11%.

What about the viability, T/C [34] of the same compound?
The viability, T/C was 1.07%.

What about the viability, T/C [35] of the same compound?
The viability, T/C was 0.14%.

What about the viability, T/C [36] of the same compound?
Its viability, T/C is 0.23%.
